Consider 14 molecules from patent US20230391758A1, “MODIFIED BENZOFURAN-CARBOXAMIDES AS GLUCOSYLCERAMIDE SYNTHASE INHIBITORS” (MERCK SHARP & DOHME CORP., priority 2020, published 2023).

GCS enzyme (glucosylceramide synthase) contained within Golgi preparations isolated from human A375 malignant melanoma skin cells, sequence (Q16739 whole entry): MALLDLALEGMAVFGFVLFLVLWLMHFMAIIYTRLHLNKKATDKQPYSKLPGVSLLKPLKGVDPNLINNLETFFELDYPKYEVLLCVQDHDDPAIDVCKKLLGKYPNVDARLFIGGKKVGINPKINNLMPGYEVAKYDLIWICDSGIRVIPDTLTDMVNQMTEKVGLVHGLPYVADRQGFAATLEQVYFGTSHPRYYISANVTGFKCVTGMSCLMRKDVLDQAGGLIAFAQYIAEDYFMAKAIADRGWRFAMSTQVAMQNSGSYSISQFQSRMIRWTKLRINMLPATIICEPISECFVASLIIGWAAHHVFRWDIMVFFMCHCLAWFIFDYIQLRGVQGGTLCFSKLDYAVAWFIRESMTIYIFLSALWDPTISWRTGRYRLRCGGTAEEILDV

The target in the test is GCS enzyme (glucosylceramide synthase) contained within Golgi preparations isolated from human A375 malignant melanoma skin cells (Homo sapiens (Human), UniProt Q16739). As to the kind of experiment: UDP-Glo glucosylceramide synthase biochemical assay. The note with it: 1.5 μg crude golgi preparation from A375 cells; C6 ceramide and UDP-glucose at 2×Km; 20 h incubation at room temperature; UDP detected by luminescence. From the text:
UDP-Glo™ Glucosylceramide Synthase Biochemical Assay
A UDP-Glo™ glucosylceramide synthase biochemical assay was utilized to evaluate the effect of test compounds on the activity of endogenous levels of GCS enzyme contained within Golgi preparations isolated from human A375 malignant melanoma skin cells. The UDP-Glo™ glucosylceramide synthase assay uses UDP-Glucose as a nucleotide-glycosyl donor and ceramide as substrate acceptor molecules. In the reaction, glucosylceramide synthase (GCS) transfers glucose from UDP-Glucose to ceramide. Glucosylceramide and UDP are released as products.
Using Promega's UDP-Glo™ Glycosyltransferase assay kit (Promega Corporation, Madison, WI, USA (Promega)), GCS activity was indirectly measured by detecting the amount of UDP produced. An aliquot of GCS enzyme (1.5 μg crude golgi preparation, total protein) and titrated test compound were aliquoted to each well and incubated for 30 minutes at room temperature. Substrate mixture was prepared by mixing C6 ceramide (Avanti Polar Lipids, Alabaster, AL USA (Avanti)) (micelles prepared at 0.6 mM in 0.6 mM DOPC) and UDP-glucose (20 μ.M; Promega), at concentrations equivalent to 2×Km, in assay buffer (25 mM HEPES (pH 7.5), 50 mM KCl, 5 mM MgCl2). An equivalent volume of substrate mixture was then added to each well. Following a 20 h incubation at room temperature to allow for GCS turnover of substrate, an equal volume of UDP detection reagent (Promega) was added to each well and incubated for an additional 75 minutes at room temperature to simultaneously convert the accumulated UDP product into ATP and generate light in a luciferase reaction. The generated light was detected using a luminometer. […] luminescence values (RLUs) were normalized to mean “min” and “max” effects, as determined on each plate. “Min” was defined as the mean of the values of the wells treated with vehicle (DMSO) and which represent 0% inhibition; “max” was defined as the mean of the values of the wells treated with a reference inhibitor and which represent the 100% effect. Values for % Emax and EC50 were determined by best-fitting the normalized data to a curve in Activity Base along a four-parameter logistic nonlinear regression (4PL) model (based on the Levenberg-Marquardt algorithm and defined by the equation below): […]
where: n is 4PMin (bottom of the curve); m is 4PMax (top of the curve); i is IP (inflection point of curve); and p is slope. See Levenberg, K., “A Method for the Solution of Certain Problems in Least Squares”, Quart. Appl. Math. 2, (1944), pp 164-168 and Marquardt, D., “An Algorithm for Least Squares Estimation on Nonlinear Parameters”, SIAM J. Appl. Math. 11, (1963) pp 431-441.
As to `O=C(N[C@@H]1CNCC[C@H]1F)c1cc2cccc(-c3ccccc3OCC(F)(F)F)c2o1` (relative stereo) [Compound 15, N-(trans-4-fluoro-3-piperidyl)-7-[2-(2,2,2-trifluoroethoxy)phenyl] benzofuran-2-carboxamide], it took 1700 pM to reach a half-maximal effect (EC50). That is a single-digit nanomolar value.
Under `N#Cc1ccc(Cl)c(-c2cccc3cc(C(=O)N[C@@H]4CC[C@H](O)C4)oc23)c1` [Compound 25, 7-(2-chloro-5-cyano-phenyl)-N-[(1R,3S)-3-hydroxycyclopentyl] benzofuran-2-carboxamide] stands 47 pM; under `O=C(NC1CNCCC1(F)F)c1cc2cccc(-c3ccccc3OCC(F)(F)F)c2o1` (racemic) [Compound 14, (R and S)-N-(4,4-difluoro-3-piperidyl)-7-[2-(2,2,2-trifluoroethoxy)phenyl] benzofuran-2-carboxamide], 480 pM; under `O=C(N[C@H]1CC[C@H](CO)CC1)c1cc2cc(F)cc(-c3ccccc3OCC(F)(F)F)c2o1` [Compound 1, 5-fluoro-N-(trans-4-(hydroxymethyl)cyclohexyl)-7-(2-(2,2,2-trifluoroethoxy)phenyl) benzofuran-2-carboxamide], 990 pM.
The value for `CCCCOc1ccccc1-c1cccc2cc(C(=O)NC(C)(C)CO)oc12` [Compound 13, 7-(2-butoxyphenyl)-N-(2-hydroxy-1,1-dimethyl-ethyl)benzofuran-2-carboxamide] was 28000 pM; that for `COc1ccc(F)c(F)c1-c1cccc2cc(C(=O)N[C@@H]3CC[C@H](O)C3)oc12` [Compound 30, 7-(2,3-difluoro-6-methoxy-phenyl)-N-[(1R,3S)-3-hydroxycyclopentyl] benzofuran-2-carboxamide] was 3400 pM; that for `Cc1nn(C)c(C)c1-c1cccc2cc(C(=O)Nc3ccc4cnccc4n3)oc12` [Compound 2, N-(1,6-naphthyridin-2-yl)-7-(1,3,5-trimethylpyrazol-4-yl)benzofuran-2-carboxamide] was 65 pM.
The value for `CCCOc1ccccc1-c1cccc2cc(C(=O)NC3CN4CCC3CC4)oc12` (racemic) [Compound 23, (R and S)-7-(2-propoxyphenyl)-N-quinuclidin-3-yl-benzofuran-2-carboxamide] was 44 pM.
On to `O=C(NC1CN2CCC1CC2)c1cc2cc(Cl)cc(-c3ccccc3OCCF)c2o1` (racemic) [Compound 20, (R and S)-5-chloro-7-[2-(2-fluoroethoxy)phenyl]-N-quinuclidin-3-yl-benzofuran-2-carboxamide], for which a half-maximal effect (EC50) was put at 20 pM. Against the preceding molecule, the EC50 is about 2.2-fold lower.
Under `Cc1nn(C)c(C)c1-c1cccc2cc(C(=O)NC3CN4CCC3CC4)oc12` (racemic) [Compound 37, (R and S)-N-(quinuclidin-3-yl)-7-(1,3,5-trimethyl-1H-pyrazol-4-yl)benzofuran-2-carboxamide] stands 2400 pM; under `C[C@]1(NC(=O)c2cc3cc(F)cc(-c4ccccc4OCC(F)(F)F)c3o2)CC[C@H](O)CC1` [Compound 27, Cis or trans-5-fluoro-N-(4-hydroxy-1-methyl-cyclohexyl)-7-[2-(2,2,2-trifluoroethoxy)phenyl] benzofuran-2-carboxamide], 240 pM.
Under `O=C(NC12CCC(CO)(CC1)CC2)c1cc2cc(F)cc(-c3ccccc3OCC(F)(F)F)c2o1` [Compound 17, 5-fluoro-N-[4-(hydroxymethyl)-1-bicyclo[2.2.2]octanyl]-7-[2-(2,2,2-trifluoroethoxy)phenyl] benzofuran-2-carboxamide] stands 890 pM; under `COc1ncc(C#N)cc1-c1cccc2cc(C(=O)NC34CCC(O)(CC3)C4)oc12` [Compound 38, 7-(5-cyano-2-methoxypyridin-3-yl)-N-(4-hydroxybicyclo[2.2.1]heptan-1-yl)benzofuran-2-carboxamide], 790 pM.
As for `CC(C)Oc1ccc(C#N)cc1-c1cc(F)cc2cc(C(=O)N[C@H]3C[C@@H](O)C3)oc12` [Compound 26, Cis-7-(5-cyano-2-isopropoxy-phenyl)-5-fluoro-N-(3-hydroxycyclobutyl) benzofuran-2-carboxamide], the midpoint of the response, the EC50, lay at 100 pM.
